Measurements as given in ChEMBL document CHEMBL3393031, “Inhibitory constituents of Sophora tonkinensis on nitric oxide production in RAW 264.7 macrophages” (Bioorg Med Chem Lett, 2015).

Key:
RAW264.7 [1] = assay: Cytotoxicity against mouse RAW264.7 cells after 24 hrs by MTT assay; assay type: cell-based; conditions: raw264.7, 24 h
RAW264.7 [2] = assay: Antiinflammatory activity in mouse RAW264.7 cells assessed as inhibition of LPS-induced NO production after 24 hrs by Griess assay; assay type: functional, cell-based; conditions: RAW264.7, 24 h

Row | IC50 (RAW264.7 [2]) [µM] | SMILES | Activity (RAW264.7 [1])
1 | > 50 | O=c1cc(-c2ccc(O)cc2)oc2cc(O)ccc12 | Non-toxic
2 | 28.1 | CC(C)=CCc1cc([C@@H]2CC(=O)c3ccc(O)c(CC=C(C)C)c3O2)cc(CC=C(C)C)c1O | Non-toxic
3 | 33 | C/C=C/C(=O)OC[C@H]1O[C@@H](Oc2ccc3c(c2)OC[C@H]2c4cc5c(cc4O[C@@H]32)OCO5)[C@H](O)[C@@H](O)[C@@H]1O | Non-toxic
4 | 13.6 | CC(C)=CCc1cc([C@@H]2CC(=O)c3ccc(O)c(CC=C(C)C)c3O2)cc2c1OC(C)(C)C=C2 | Non-toxic
5 | 45.1 | COc1cc([C@@H]2OC[C@@H]3[C@H]2CO[C@H]3c2ccc(O)c(OC)c2)ccc1O [(+)-PINORESINOL] | Non-toxic
6 | > 50 | COc1ccc(-c2coc3cc(O)ccc3c2=O)cc1O [CALYCOSIN] | Non-toxic
7 | > 50 | O=c1c(-c2ccc(O)cc2)coc2cc(O)cc(O)c12 [GENISTEIN] | Non-toxic
8 | 27 | Oc1ccc2c(c1)OC[C@H]1c3cc4c(cc3O[C@@H]21)OCO4 [MAACKIAIN] | Non-toxic
9 | 41 | COc1cc([C@H]2OC[C@@H]3C(c4cc(OC)c(O)c(OC)c4)OC[C@H]23)ccc1O (some centres not stated) [MEDIORESINOL] | Non-toxic
10 | > 50 | COc1cc([C@H]2OC[C@H]3[C@@H]2CO[C@@H]3c2cc(OC)c(O)c(OC)c2)cc(OC)c1O [SYRINGARESINOL] | Non-toxic

Row | SMILES | IC50 (RAW264.7 [2]) [µM] | Activity (RAW264.7 [1])
11 | N=C(N)NN [PIMAGEDINE] | 18.7 | Non-toxic
